This note sets out measurements from patent publication US20250042968A1, “EPHRIN LIGAND MIMETIC PEPTIDES FOR THE TREATMENT OF NEURODEGENERATIVE DISEASES” (University of Miami, priority 2022, published 2025).

The target in one data set is T1, EphA2 (Mus musculus, UniProt Q03145).
T1 construct: endogenous in cells; host or cells: primary mouse retinal ganglion cells (p8-10 pups)
The data set can be described thus: Immunohistochemistry of TUBB3 and pEphA2 receptor in RGCs. Type of data set: cell-based. As to conditions: 500 nM, 4 days.

Another data set relates to mouse RGC growth cones. The experiment in a line: RGC growth cone collapse analysis. As to conditions: 500 nM, 4 days, mouse RGC cultures. The data set is classed as cell-based. The procedure:
One of the first signs of neuronal dysfunction is axonal growth cone collapse, and it is one of the mechanisms through which Eph-receptors exert their repulsive stimuli for axonal guidance. […] At the 48 h time point, cells were stimulated by the addition of 2 μg of pre-clustered recombinant mouse EfnA5-His (R&D Systems) for 1 hour. Following this stimulation, cells were fixed in 4% paraformaldehyde for 5 minutes, permeabilized with 0.05% Triton X-100, and blocked with 5% FBS for 1 h. Cells were then incubated in primary antibody against TUBB3 overnight at 4° C., washed, and incubated in AlexaFluor 488-conjugated secondary for 2 h at room temperature. After washing, cell cytoskeleton was counterstained with AlexaFluor 594-conjugated phalloidin for 30 min at 37° C. (ThermoFisher) and mounted with SlowFade Gold Anti-fade media with DAPI. Cells were then imaged using an EVOS FL Auto fluorescent microscope. Images were analyzed in ImageJ by a blinded investigator and a growth cone collapse was calculated manually.

Data set [1] deals with RGCs and visual function after optic neuropathy onset. The experiment in a line: Ultrasonic shockwave optic nerve injury model (SI-TON): RGC survival, PERG, flash ERG. Type of data set: in vivo, mouse. As for the experimental part:
In this example, the effect of xEFN peptide administration on the visual function of mice in an animal model that more closely resembled the human manifestation and progression of visual dysfunction following the onset of optic neuropathy was assessed. […] Visual function was measured at 2 and 4 weeks post optic nerve injury in all groups using pattern electroretinogram (PERG) to measure RGC function, as well as flash electroretinogram (ERG) to assess rod and cone functionality.

T1 sequence (Q03145 26-977): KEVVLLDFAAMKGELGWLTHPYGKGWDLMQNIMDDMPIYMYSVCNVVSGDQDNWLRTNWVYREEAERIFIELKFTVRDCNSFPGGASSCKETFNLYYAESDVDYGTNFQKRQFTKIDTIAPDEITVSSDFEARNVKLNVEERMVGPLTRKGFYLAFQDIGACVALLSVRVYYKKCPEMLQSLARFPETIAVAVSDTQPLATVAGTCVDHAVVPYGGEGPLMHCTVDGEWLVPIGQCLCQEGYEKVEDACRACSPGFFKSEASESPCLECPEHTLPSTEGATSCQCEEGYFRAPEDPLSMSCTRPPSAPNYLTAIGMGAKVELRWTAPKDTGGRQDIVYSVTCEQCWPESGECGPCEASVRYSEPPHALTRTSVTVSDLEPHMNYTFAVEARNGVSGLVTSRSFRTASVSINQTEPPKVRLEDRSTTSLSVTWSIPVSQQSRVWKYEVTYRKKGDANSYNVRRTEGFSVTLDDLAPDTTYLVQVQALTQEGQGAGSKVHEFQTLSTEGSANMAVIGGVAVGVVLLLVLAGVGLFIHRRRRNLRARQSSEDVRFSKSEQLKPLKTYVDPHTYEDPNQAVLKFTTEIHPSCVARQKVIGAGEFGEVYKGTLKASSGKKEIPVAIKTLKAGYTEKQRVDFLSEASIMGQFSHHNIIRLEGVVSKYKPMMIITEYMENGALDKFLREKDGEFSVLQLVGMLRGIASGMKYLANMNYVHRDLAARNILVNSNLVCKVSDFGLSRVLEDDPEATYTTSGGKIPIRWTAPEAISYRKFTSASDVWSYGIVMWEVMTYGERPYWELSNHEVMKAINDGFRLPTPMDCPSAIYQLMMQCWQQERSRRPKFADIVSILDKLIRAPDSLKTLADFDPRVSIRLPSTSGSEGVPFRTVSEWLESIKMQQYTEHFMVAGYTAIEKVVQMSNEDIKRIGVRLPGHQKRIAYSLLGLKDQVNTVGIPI

Turning to FTIKFQEFSPNLWGL [xEFN_RBD3], on EphA2, the “dendritic density (immunohistochemistry)” value is on record as “increase dendritic density” and the “phosphorylation of the EphA2 receptor (immunohistochemistry)” value is “reduced phosphorylation”. Besides, the “number of collapsed growth cones” value in the data set on mouse RGC growth cones was “significant decrease”. Also, the “PERG amplitude over baseline recordings” value in data set [1] (2 weeks post optic nerve injury) was “decline”. Besides, the “visual response versus vehicle (PBS) treated animals” value in data set [1] (4 week assessment) is given as “significantly better”. Moreover, in data set [1] (4 weeks post injury), the “RGC survival compared to vehicle treated controls” value is recorded as “significant survival effect”. The “visual function (PERG) at the 4 week assessment” value in data set [1] (4 weeks post optic nerve injury) is reported as “improved”.
